{"source": "patent US6001852A", "about": "(priority 1996, dated 1999)", "key": {"[1]": {"system": "zinc precipitated Aβ", "test": "Washing of zinc-aggregated synthetic Aβ on nylon membrane (anti Aβ mAb 6E10, ECL-film)", "format": "biochemical", "settings": "2 μM in TBS, 200 μl wash; 10 ng Aβ aggregated with 25 μM ZnCl; 100% for TBS alone", "method": "Samples of 10 ng synthetic Aβ were placed in microtitre wells and caused to aggregate by the addition of 25 μM ZnCl. The aggregates were then transferred to a 0.2 μm nylon membrane by filtration. […] The membrane was fixed, probed with the anti Aβ monoclonal antibody 6E10 and developed for exposure to ECL-film. The transmittance of the ECL-film was measured and the relative signal strength calculated based on 100% for TBS alone."}, "[2]": {"test": "Dissolution of clioquinol in n-decane and extraction into PBS pH 7.4", "format": "physicochemical", "method": "The resolubilization of amyloid aggregates by clioquinol was studied. […] The undissolved aterial was allowed to settle. […] 100 ml of the (light yellow) supernatant was agitated together with 100 ml of PBS pH 7.4 and the phases allowed to separate. The PBS (lower phase) was collected and filtered to remove the residue which formed at the phase interface upon extraction with the organic solvent."}, "[3]": {"system": "Aβ", "test": "Solubilization of Aβ from Alzheimer's disease brain homogenates (Western blot, mAb W02)", "format": "biochemical, human", "settings": "frontal lobe neocortex homogenized in clioquinol/PBS at 100%, 10% and 1% (100%=800 nM)", "description": "Brain specimens were obtained for which a histopathological diagnosis of Alzheimer's disease was confirmed.\nThe homogenates were centrifuged at 150,000 xg for thirty minutes and the supernatants collected and held on ice (fraction \"S\"). The pellets were subjected to an identical homogenization and centrifugation regime and the resulting supernatants again collected (fraction \"P\")\n1 ml of each supernatant was treated with 200 μl of ice cold 10% TCA to precipitate total protein including Aβ. The resulting pellet was washed once with 100% ethanol and resuspended in 100 μl of TBS (tris 20 mM, NaCl 150 mM, pH 7.4).\n7.5 μl of sample (S or P) was boiled for 5 min. with an equal volume of tris-tricine sample buffer containing 4% SDS and loaded onto a Novex pre-cast 10-20% tris-tricine gel followed by Western transfer onto nitrocellulose. […] The sensitivity of the detection system is 5-10 pg.\nTo validate the TCA precipitation for Aβ 1 μg of synthetic Aβ 1-40 was added to 1 ml of PBS containing 10% BSA and the solution was treated as above."}, "[4]": {"system": "zinc-aggregated Aβ", "test": "Resolubilization of zinc-aggregated Aβ in TBS pH 7.4", "format": "biochemical", "settings": "clioquinol added after 30 μM zinc (43% in solution with zinc alone, 95% before zinc)", "method": "The ability of clioquinol to resolubilize zinc-aggregated Aβ was assessed. A […] solution of Aβ in TBS at a pH of 7.4 was prepared. 95% of the Aβ was maintained in a soluble state."}, "[5]": {"test": "1H NMR study of the interaction of vitamin B12 with clioquinol glucuronide", "format": "binding", "settings": "2.6 mM vitamin B12 and 10 mM clioquinol glucuronide, buffered water pH 6.5, 20° C.", "method": "Three different solutions were prepared and their ^1 H NMR spectra were recorded in a DRX 400 MHz spectrophotometer at 20° C. Solution a) contained free vitamin B12 (hydroxycobalamin) in a concentration of 2.6 mM.\nIn FIG. 1 the spectra of the three solutions are presented for the aromatic region (5.5-9.8 ppm). The differences are quite small but obvious in the expansion shown of FIG. 2 and FIG. 3, respectively."}}, "data": [{"smiles": "O=C(O)CN(CCN(CC(=O)O)CC(=O)O)CC(=O)O", "note": "[EDTA]", "values": [{"measurement": "Relative signal strength (Aβ remaining on membrane)", "setting": "[1]", "result": 66, "unit": "%"}]}, {"smiles": "Oc1c(I)cc(Cl)c2cccnc12", "note": "[clioquinol, 5-chloro-7-iodo-8 hydroxyquinoline]", "values": [{"measurement": "Share of clioquinol dissolved in n-decane", "setting": "[2]; 5.3 g suspended in 200 ml n-decane", "result": 2, "unit": "%"}, {"measurement": "Concentration of clioquinol in the PBS", "setting": "[2]; PBS pH 7.4 extract of decane supernatant, 1:1, assuming 2% dissolved and partitioning coefficient 1/1750", "result": 800, "unit": "nM"}, {"measurement": "Solubilization of Aβ", "setting": "[3]", "result": "effective in promoting the solubilization of Aβ"}, {"measurement": "Soluble Aβ", "setting": "[4]", "result": 70, "unit": "%"}]}, {"smiles": "COC(=O)[C@H]1OC(Oc2c(I)cc(Cl)c3cccnc23)[C@H](OC(C)=O)[C@@H](OC(C)=O)[C@@H]1OC(C)=O", "note": "(stereo partly drawn) [methyl (5-chloro-7-iodo-quinolyl-2',3',4'-tri-o-acetyl-glucopyranosid)uronate]", "values": [{"measurement": "Interaction with vitamin B12 (shifted 1H NMR resonances)", "setting": "[5]", "result": "interaction between clioquinol glucuronide and vitamin B12"}]}]}
